Results taken from US20030050236A1, “Compounds that enhance tumor death” (The University of Chicago, priority 2000, published 2003).
Where a SMILES comes first, the peptide text is derived from it. [ ]: non-standard residue; d: D form. The star is where a group is joined. Palmitoyl = CCCCCCCCCCCCCCCC(=O)*; Dap = NC[C@H](N)C(=O)O

Columns and labels:
[1] = tested on: H-Ras- and N-Ras-encoded p21s; conditions: cited from earlier work
LA-N-5 cells = experiment: DNA fragmentation assay (Hoechst 33285); type: cell-based, human; conditions: LY-294002 30 μM, C2 ceramide 25 μM
Method: Quantification of DNA fragments was performed as described previously (Dawson et al., 1997). Briefly, cells were lysed in 5 mM Tris (pH 8.0) with 0.1% Triton X-100 and 20 mM EDTA and centrifuged at 20,000× g for 40 min at 4° C. For determination of DNA fragments lost in culture media, an aliquot of media was adjusted to a final concentration of 25 mM EDTA and centrifuged as described above. […] Fluorescence was detected by luminescent spectrometer using excitation 365 nm and emission 460 mn. DNA values were calculated using a standard curve obtained from the measurement of calf thymus DNA fluorescence.

caspase 3 = experiment: Caspase 3-like activity (DEVD-AFC) in LA-N-5 cells; type: cell-based, human; conditions: LY-294002 30 μM, C2 ceramide 25 μM
Method: Cells treated with drug or vehicle were harvested, washed with PBS and cell pellets lysed in 25 mM Hepes (pH 7.4), containing 2 mM dithiothreitol (DTT), 5 mM EDTA and […] digitonin. After centrifugation at 6,000 rpm for 10 min to remove cell debris and unruptured cells, an aliquot of the supernatant was added to a reaction buffer consisting of 25 mM Hepes (pH 7.4), 2 mM DTT, 5 mM EDTA, […] digitonin and 2.5 μg/ml DEVD-AFC. After 1 h incubation, the hydrolysis of substrate was quantified by fluorometry at excitation 400 mn and emission 505 nm. The blank reaction was done in the absence of cell lysate. Enzyme activity was expressed as the amount of fluorescence produced per mg protein/h.

[2] = tested on: LA-N-5 human neuroblastoma cells; experiment: Cell viability / cell death by MTT assay; type: cell-based
Method: LA-N-5 human neuroblastoma cells were grown in DMEM supplemented with 10% fetal bovine serum and 1% gentamicin. […] Cell death was measured by the MTT method (Cho et al., 2000a; Cho et al., 2000b; Cho et al., 2000c).

Ras = Ras activation: guanine nucleotide binding and membrane association; type: cell-based, human; conditions: C2 ceramide 30 μM
Method: (§1) Cells were harvested in a lysis buffer containing 10 mM Tris (pH 7.4), 1 mM EGTA, 1 mM EDTA, 1 mM DTT, 25 mM NaF, 2 mM MgCl2 and 10 μg/ml aprotinin, leupeptin and pepstatin. For subcellular fractionation, the postnuclear cell extract was centrifuged at 100,000× g for 45 min to obtain a cytosolic fraction and the pellet was washed and resuspended in a lysis buffer to obtain a membrane fraction. Whole cell lysate (for caspase-3 and pFLAG-PPT1) or fractionated proteins (for p21Ras and GAP-43) were resolved by 10%, 12% or 15% of SDS-PAGE for GAP-43, caspase-3 and pFLAG-PPT1, or Ras, respectively. For immunoblotting with anti-Akt antibodies, cells were lysed in RIPA buffer consisting of 50 mM Tris (pH 7.4), 150 MM NaCl, 1 mM EGTA, 1% Nonidet P-40, 0.25% sodium deoxycholate, 1 mM NaF and protease inhibitors. After lysis on ice for 1 h, cell debris was removed by centrifugation at 3,000 rpm for 5 min and an equal amount of postnuclear cell extract loaded on 8.5% SDS-PAGE. Resolved proteins were transferred to membrane overnight, blots incubated with a blocking solution for 1 h, incubated with appropriate primary and secondary antibodies and the signals detected by ECL.
Cells (10×10^6) were washed and incubated with 0.8 mCi/ml ^32Pi for 4 h in phosphate-free DMEM. […] Cell lysate was immunoprecipitated with monoclonal anti-Ras and bound nucleotides eluted with 1 mM EDTA/25 μM GDP and GTP were analyzed by TLC using 0.75 M KH2PO4 (pH 3.5). After autoradiography, the radioactive spots corresponding to GDP and GTP were counted.
p21^Ras is a key regulator in the signaling pathways involved in variety of events such as cell proliferation, transcription and apoptosis. […] Therefore, the subcellular localization of Ras protein was analyzed after C2-ceramide treatment. Cells were treated with C2 ceramide (30 μM), harvested at 10 min and 60 min and the membrane fraction (100,000× g pellet) analyzed by immunoblotting.

PPT1 [3] = molecular target: T1, PPT1 (Homo sapiens, UniProt P50897); experiment: In vitro PPT1 activity assay, [14C]palmitoyl peptide substrates, cell extract
T1 sequence (P50897 28-306): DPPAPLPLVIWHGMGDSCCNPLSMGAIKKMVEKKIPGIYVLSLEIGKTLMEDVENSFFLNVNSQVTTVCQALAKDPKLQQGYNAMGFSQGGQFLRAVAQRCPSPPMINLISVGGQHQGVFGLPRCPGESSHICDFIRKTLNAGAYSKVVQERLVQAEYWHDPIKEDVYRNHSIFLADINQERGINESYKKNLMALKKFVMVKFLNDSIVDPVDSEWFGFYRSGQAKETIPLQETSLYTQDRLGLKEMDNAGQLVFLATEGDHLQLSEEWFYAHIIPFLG
Method: Incubations were performed for 20 min at 37° C. and reactions terminated by addition of 1 ml of chloroform/methanol/2N HCl (2:1:0.06, v/v). After the centrifugation, organic phase was analyzed by HPTLC using n-butanol/pyridine/acetic acid/water (45:30:9:36, v/v) and [14C] palmitate release was quantified.
The peptide sequence, AcGCVKIKK (a palmitoylation site in K-Ras), was modified by substituting the SH group of cysteine with NH2 to generate diamino propionic acid, which was then acylated with palmitate (AcG-palmitoyl diamino propionate-VKIKK). […] In another set of experiments, the unmodified peptide itself (AcGCVKIKK) was used as a control to exclude the possibility of a nonspecific effect of the sequence on PPT activity.
In brief, the cell sonicate was incubated in the assay mixture containing 50 mM sodium citrate (pH 4.0) and IRY([^4C]palmitoylated)CWLRR octapeptide (2,000-4,000 cpm) for 20 min at 37° C. For the pH profile of PPT1 activity, 50 mM sodium citrate (pH 5 or 6) or 50 mM Tris-HCl (pH 7.4) was used with other conditions remaining the same. After addition of 1 ml of chloroform/methanol/2N HCl (2:1:0.06, by volume) and centrifugation, the organic phase was dried, reconstituted sample analyzed by HPTLC using n-butanol/pyridine/acetic acid/water (45:30:9:36, by volume) and the radioactive spot corresponding to [^14C] palmitate was counted.
PPT1 activity was measured as described above. In brief, the cell sonicate was incubated in the assay mixture (50 mM sodium citrate (pH 4.0) for [^14C]palmitoylated [sequence] Po peptide substrate (3,000-4,000 cpm) or 50 mM Tris (pH 7.4) for [^14C]palmitoylated MLCCMRR GAP43 peptide substrate) for 20 min at 37° C. After organic extraction, samples were analyzed by HPTLC using n-butanol/pyridine/acetic acid/water (45:30:9:36, by volume) and the radioactive spot corresponding to [^14C] palmitate was counted.

[4] = tested on: COS cells and embryonic neuron primary cultures
PPT1 [5] = molecular target: T1, PPT1; conditions: cited from earlier work
[6] = multiple myeloma, oral administration; cited from earlier work
[7] = tested on: HOG cells, human oligodendroglioma cells; experiment: Killing of HOG cells, MTT assay; type: cell-based; conditions: 24 hours
Method: The relative potency of DAP1 compared to DAP1 ketoamide (DAP-KA) in killing cells was evaluated. HOG cells, human oligodendroglioma cells, were exposed for 24 hours to a) DAP1 or DAP-KA (FIG. 15A) or […] etoposide and either DAP 1 or DAP-KA (FIG. 15B). The concentration of etoposide was chosen to give 50% killing as measured by MTT assay.

[8] = tested on: PPT1 overexpressing LA-N-5 cells; experiment: Cell death by MTT assay in PPT1 overexpressing cells; type: cell-based, human; conditions: compared to LAN-5 cells
Method: Cells were plated in 24-well culture plates containing 500 μl media. After drug treatment, 50 μl MTT (5 mg/ml in PBS) was added and incubated for 20 min at 37° C. An aliquot of 500 μl of 10% sodium dodecyl sulfate in 0.01 N HCl was added. After incubating overnight, the absorbance at 570 nm was determined by spectrophotometry. Cell viability was calculated as percent cell survival by dividing absorbance [treatment-blank] by absorbance [control-blank], where treatment is the reading for the treated cells, control is for vehicle-treated cells and blank is for MTT added to the media without cells.
In order to further verify that the increased susceptibility to drug-induced apoptosis of the AS-PPT1 treated cells was due to compromised PPT1 activity, the extent of cell death induced by C2-ceramide treatment in control was compared to DAP 1-treated cells. Treatment of cells with DAP1 alone induced 5-10% death of cells at DAP1 concentrations up to 100 μM for 6 h., as measured by MTT assay (FIG. 10A). […] In these cells, neither C2-ceramide, DAP1 alone or DAP1 (100 μM) followed by C2-ceramide (30 μM) for 6 h induced more than 10% cell death (FIG. 10B).
LA-N-5 human neuroblastoma cells were grown in DMEM supplemented with 10% fetal bovine serum and 1% gentamicin. Clones of cells stably expressing PPT1 were selected and maintained by growing in media containing G418 (500 μg/ml) as described (Cho, et al., 2000b). Cell death was measured by the MTT method (Cho et al., 2000a; Cho et al., 2000b; Cho et al., 2000c).

Akt = Akt phosphorylation immunoblot; type: cell-based, human; conditions: insulin 5 min; LY294002 pretreatment; vector-transfected cells
Method: as §1, with “After lysis on ice for 1 h, cell debris was removed by centrifugation at 3,000 rpm for 5 min and an equal amount of postnuclear cell extract loaded on 8.5% SDS-PAGE.” left out
To further investigate the downstream pathway by which PPT1 exerts protection against apoptosis, the activation of Akt was examined in control and PPT1 overexpressing cells. […] Therefore, the activation of Akt was analyzed by immunoblotting the cell extracts with an antibody specific to phosphorylated Akt (Ser473). […]

**Q.** With `C/C=C/C/C=C/CCC(=O)[C@H]1O[C@H]1C(N)=O` (relative stereo) [cerulenin, [2R, 3S]-2,3-epoxy-4-oxo-7,10-trans, trans-dodecadienamide] as the compound, how does the “palmitoylation of Ras p21s” value [1] read?
**A.** able to inhibit the palmitoylation

**Q.** With `CCCCCCCCCCCCC/C=C/[C@@H](O)[C@H](CO)NC(C)=O` [C2 ceramide] as the compound, how does the DNA fragmentation (LA-N-5 cells) read?
**A.** increase in DNA fragmentation

**Q.** What about the “activation of caspase 3” value (caspase 3) of the same compound?
**A.** time-dependent activation of caspase 3

**Q.** And the “death of cells (MTT)” value ([2]; 30 μM C2-ceramide alone, 6 h)?
**A.** about 10%

**Q.** And the “cell death (MTT assay)” value ([2]; LY-294002 30 μM, C2 ceramide 25 μM, 24 hrs)?
**A.** about 50%

**Q.** What about the “GTP/(GDP+GTP) ratio increase over control” value (Ras; 10 min) of the same compound?
**A.** 33%

**Q.** What about the “membrane-association of Ras” value (Ras; 10 min and 60 min) of the same compound?
**A.** time-dependent increase in membrane-association of Ras

**Q.** What about the “GTP/(GDP+GTP) ratio increase over control” value (Ras; 60 min) of the same compound?
**A.** 85%

**Q.** Which inhibition at 20 µM (PPT1 [3]; read-out: inhibition in an in vitro assay (PPT)) does the source give for `CCCCCCCCCCCCCCCC(=O)NC[C@H](NC(=O)CNC(C)=O)C(=O)N[C@H](C(=O)N[C@@H](CCCCN)C(=O)N[C@H](C(=O)N[C@@H](CCCCN)C(=O)N[C@@H](CCCCN)C(N)=O)[C@@H](C)CC)C(C)C` [DAP1, AcG-palmitoyl diamino propionate-VKIKK] (Ac-G[Dap](Palmitoyl)VKIKK-NH2) here?
**A.** 85%

**Q.** What about the “toxicity to non-dividing cells” value (non-dividing cells) of the same compound?
**A.** does not appear to be toxic

**Q.** And the “effect on COS cells and embryonic neuron primary cultures” value [4]?
**A.** much less effect

**Q.** Which “mode of PPT1 inhibition” value (PPT1 [5]) does the source give for `CC[C@H](C)[C@H]1NC(=O)[C@@H](NC(=O)[C@@H](CC(C)C)N(C)C(=O)[C@@H]2CCCN2C(=O)C(C)O)[C@@H](C)OC(=O)[C@H](Cc2ccc(OC)cc2)N(C)C(=O)[C@@H]2CCCN2C(=O)[C@H](CC(C)C)NC(=O)[C@@H](C)C(=O)[C@H](C(C)C)OC(=O)C[C@@H]1O` (stereo partly drawn) [Didemnin] here?
**A.** non-competitively inhibit PPT1 activity

**Q.** Which “patients showing a favorable response” value [6] does the source give for `N[C@@H](Cc1ccc(N(CCCl)CCCl)cc1)C(=O)O` [Melphalan, 4-[bis(2-chloroethyl)amino]-L-phenylalanine] here?
**A.** one third to one half

**Q.** With `COc1cc([C@@H]2c3cc4c(cc3[C@@H](O[C@@H]3O[C@@H]5CO[C@@H](C)O[C@H]5[C@H](O)[C@H]3O)[C@H]3COC(=O)[C@H]23)OCO4)cc(OC)c1O` [etoposide] as the compound, how does the “killing (MTT assay)” value ([7]; 10 mM etoposide) read?
**A.** 50%

**Q.** And the “susceptibility of PPT1 overexpressing cells to killing” value [8]?
**A.** markedly decreased susceptibility to killing

**Q.** Which results are given for “AcG-Dap((+/−)α-hydroxyhexadecanoyl)-VKIKK.amide (Ac-G[Dap]VKIKK-NH2; not fully specified (residue 2); printed as AcG-Dap((+/−)α-hydroxyhexadecanoyl)-VKIKK.amide) [DAP-KA]”?
**A.** potency as inducer of cell death relative to DAP1 ([7]; with etoposide): more potent inducer of cell death than DAP1; potency as inhibitor relative to DAP1 (PPT1 [3]): more potent inhibitor than DAP1

**Q.** With “insulin: growth factor used as positive control for Akt activation” as the compound, how does the “phosphorylation of Akt (Ser473)” value (Akt) read?
**A.** induced significant phosphorylation of Akt
